Results published in ChEMBL document CHEMBL2331447, “Nocardiamides A and B, two cyclohexapeptides from the marine-derived actinomycete Nocardiopsis sp. CNX037” (J Nat Prod, 2013).
The source made the active and inactive calls.

Key:
Type in all cases: functional, organism-based
Bacillus thuringiensis = experiment: Antimicrobial activity against Bacillus thuringiensis SCSIO BT01 assessed as inhibition of visible growth measured after 16 to 20 hrs by broth microdilution method
Escherichia coli = experiment: Antimicrobial activity against Escherichia coli ATCC 25922 assessed as inhibition of visible growth measured after 16 to 20 hrs by broth microdilution method
Enterococcus faecalis = experiment: Antimicrobial activity against Enterococcus faecalis ATCC 29212 assessed as inhibition of visible growth measured after 16 to 20 hrs by broth microdilution method
Staphylococcus aureus = experiment: Antimicrobial activity against Staphylococcus aureus ATCC 29213 assessed as inhibition of visible growth measured after 16 to 20 hrs by broth microdilution method
Micrococcus luteus = experiment: Antimicrobial activity against Micrococcus luteus SCSIO ML01 assessed as inhibition of visible growth measured after 16 to 20 hrs by broth microdilution method
Bacillus subtilis = experiment: Antimicrobial activity against Bacillus subtilis SCSIO BS01 assessed as inhibition of visible growth measured after 16 to 20 hrs by broth microdilution method
Candida albicans = experiment: Antimicrobial activity against Candida albicans ATCC 10231 assessed as inhibition of visible growth measured after 16 to 20 hrs by broth microdilution method

Measured: Activity

CC(C)C[C@@H](NC(=O)[C@H](NC(=O)[C@@H](NC(=O)[C@H](N)C(C)C)C(C)C)C(C)C)C(=O)N[C@H](C(=O)N[C@@H](Cc1ccc(O)cc1)C(=O)O)C(C)C
inactive: all assays above

CC[C@H](C)[C@H](NC(=O)[C@@H](CC(C)C)NC(=O)[C@H](NC(=O)[C@@H](NC(=O)[C@H](N)C(C)C)C(C)C)C(C)C)C(=O)N[C@@H](Cc1ccc(O)cc1)C(=O)O
inactive: all assays above

CC[C@H](C)[C@@H]1NC(=O)[C@@H](CC(C)C)NC(=O)[C@@H](C(C)C)NC(=O)[C@H](C(C)C)NC(=O)[C@@H](C(C)C)NC(=O)[C@H](Cc2ccc(O)cc2)NC1=O
inactive: all assays above

CC(C)C[C@H]1NC(=O)[C@@H](C(C)C)NC(=O)[C@H](C(C)C)NC(=O)[C@@H](C(C)C)NC(=O)[C@H](Cc2ccc(O)cc2)NC(=O)[C@H](C(C)C)NC1=O
inactive: all assays above
